This note sets out measurements from patent publication US5053425A, “Novel anti-fungal compounds” (Merck & Co., Inc., priority 1990, dated 1991).

Common to all, as to type: cell-based
The test system of one experiment is A. fumigatus MF4839. In words: MIC, inhibitor dilution assay in microtiter format, A. fumigatus MF4839. Particulars: Aspergillus fumigatus; A. fumigatus MF4839, 42 hours, 28° C.; read-out: Minimum Inhibitory Concentration. The protocol: (§1) The compounds are particularly active towards filamentous fungi and yeasts including Candida albicans and Crypt neoformans. The sensitivity of filamentous fungi and yeast was determined using inhibitor dilution assays in microtiter format. The compounds were dissolved in DMSO at 2 mg/ml and serially diluted in 0.1M phosphate buffer, pH 7.0 in the microtiter dish from 100 to 0.006 μg/ml. A standardized spore suspension for testing the filamentous fungi was prepared by inoculating Antibiotic Medium #3 containing 1.5% agar with spores such that 1.5×10^3 colony forming units were added per well. The microtiter wells were filled with 50 μl of buffer containing compound and 50 μl of inoculated medium. The sensitivity of yeasts was determined by inoculating yeast nitrogen base containing 1% dextrose (YNB/G) with aliquots of an overnight yeast culture grown in yeast morphology (YM) media at 35° C. and diluting in YNB/G to yield a final concentration of 1.5-7.5×10^3 colony forming units/well. One hundred fifty μl of inoculated media was added per well. To test the sensitivity of yeast, compound was solubilized in 10 percent aqueous DMSO at 2.56 mg/ml. The compound was diluted serially in YNB/G from 128 to 0.06 μg/ml. The wells were filled with 150 μl of drug containing media. […]

For the next experiment, the system named is A. flavus MF383. In words: MIC, inhibitor dilution assay in microtiter format, A. flavus MF383. Particulars: Aspergillus flavus; A. flavus MF383, 42 hours, 28° C.; read-out: Minimum Inhibitory Concentration. The protocol: as §1
For another experiment, the system named is T. Mentagrophytes MF4864. The experiment is described as follows: MIC, inhibitor dilution assay in microtiter format, T. Mentagrophytes MF4864. As to conditions: Trichophyton mentagrophytes; T. Mentagrophytes MF4864, 42 hours, 28° C.; read-out: Minimum Inhibitory Concentration. The protocol: as §1
The test system of the next experiment is C. albicans MY1055. The experiment is described as follows: MIC and MFC, inhibitor dilution assay in microtiter format, C. albicans MY1055. As to conditions: Candida albicans; for MIC: C. albicans MY1055, 24 hours, 28° C., read-out: Minimum Inhibitory Concentration; for MFC: C. albicans MY1055, no growth or no more than three colonies, read-out: Minimum Fungicidal Concentration. The protocol:
(§2) The compounds are particularly active towards filamentous fungi and yeasts including Candida albicans and Crypt neoformans. The sensitivity of filamentous fungi and yeast was determined using inhibitor dilution assays in microtiter format. The compounds were dissolved in DMSO at 2 mg/ml and serially diluted in 0.1M phosphate buffer, pH 7.0 in the microtiter dish from 100 to 0.006 μg/ml. A standardized spore suspension for testing the filamentous fungi was prepared by inoculating Antibiotic Medium #3 containing 1.5% agar with spores such that 1.5×10^3 colony forming units were added per well. The microtiter wells were filled with 50 μl of buffer containing compound and 50 μl of inoculated medium. The sensitivity of yeasts was determined by inoculating yeast nitrogen base containing 1% dextrose (YNB/G) with aliquots of an overnight yeast culture grown in yeast morphology (YM) media at 35° C. and diluting in YNB/G to yield a final concentration of 1.5-7.5×10^3 colony forming units/well. One hundred fifty μl of inoculated media was added per well. To test the sensitivity of yeast, compound was solubilized in 10 percent aqueous DMSO at 2.56 mg/ml. The compound was diluted serially in YNB/G from 128 to 0.06 μg/ml. The wells were filled with 150 μl of drug containing media. The minimum inhibitory concentration (MIC) is defined as the lowest concentration to prevent visible growth after an incubation for 42 hours, 28° C. for the filamentous fungi and 24 hours, 28° C. for the yeasts. […] Representative of the antifungal activity are the minimum inhibitory concentration and minimum fungicidal concentration data shown below: […]

A further experiment deals with C. tropicalis MY1012. The experiment is described as follows: MIC and MFC, inhibitor dilution assay in microtiter format, C. tropicalis MY1012. As to conditions: Candida tropicalis; for MIC: C. tropicalis MY1012, 24 hours, 28° C., read-out: Minimum Inhibitory Concentration; for MFC: C. tropicalis MY1012, no growth or no more than three colonies, read-out: Minimum Fungicidal Concentration. The protocol: as §2

The next experiment relates to C. parapsilosis MY1010. In words: MIC and MFC, inhibitor dilution assay in microtiter format, C. parapsilosis MY1010. As to conditions: Lodderomyces parapsilosis; for MIC: C. parapsilosis MY1010, 24 hours, 28° C., read-out: Minimum Inhibitory Concentration; for MFC: C. parapsilosis MY1010, no growth or no more than three colonies, read-out: Minimum Fungicidal Concentration. The procedure: as §2

The subject of another experiment is Crypt. neoformans MY1051. In words: MIC and MFC, inhibitor dilution assay in microtiter format, Crypt. neoformans MY1051. As to conditions: Cryptococcus neoformans; for MFC: Crypt neoformans MY1051, no growth or no more than three colonies, read-out: Minimum Fungicidal Concentration; for MIC: Crypt. neoformans MY1051, 24 hours, 28° C., read-out: Minimum Inhibitory Concentration. The procedure:
as §2

Another experiment concerns A. niger MF442. In words: MIC, inhibitor dilution assay in microtiter format, A. niger MF442. Particulars: Aspergillus niger; A. niger MF442, 42 hours, 28° C.; read-out: Minimum Inhibitory Concentration. The procedure:
as §1

In the next experiment the test system is Fus. oxysporum MF4014. In words: MIC, inhibitor dilution assay in microtiter format, Fus. oxysporum MF4014. Particulars: Fusarium oxysporum; Fus. oxysporum MF4014, 42 hours, 28° C.; read-out: Minimum Inhibitory Concentration. The procedure:
as §1

In another experiment the test system is Pen. italicum MF2819. The experiment is described as follows: MIC, inhibitor dilution assay in microtiter format, Pen. italicum MF2819. Particulars: Penicillium italicum; Pen. italicum MF2819, 42 hours, 28° C.; read-out: Minimum Inhibitory Concentration. The procedure:
as §1

For another experiment, the system named is Coch. miyabeanus MF4626. The experiment is described as follows: MIC, inhibitor dilution assay in microtiter format, Coch. miyabeanus MF4626. As to conditions: Bipolaris oryzae, MF4626, 42 h, read-out: Minimum Inhibitory Concentration. The protocol:
as §1

Converted amounts (≈) assume the structure as drawn.

Take `C=C(CCC12OC(C(=O)OC)C(O)(C(=O)OC)C(C(=O)OC)(O1)C(OC(=O)C=CC(C)CC(C)CC)C2O)C(OC(C)=O)C(C)Cc1ccccc1` (centres unmarked) [Compound B]: the MIC in the experiment on A. fumigatus MF4839, in the experiment with A. flavus MF383, with T. Mentagrophytes MF4864, with C. albicans MY1055, with C. tropicalis MY1012 and in the experiment on C. parapsilosis MY1010 was greater than 128 µg/mL each time. For the same compound, the MIC in the experiment on Crypt. neoformans MY1051 is greater than 128 µg/mL. Moreover, the MFC with C. albicans MY1055, in the experiment on C. tropicalis MY1012, with C. parapsilosis MY1010 and in the experiment with Crypt. neoformans MY1051 was greater than 128 µg/mL throughout.

On to `C=C(CCC12OC(C(=O)O)C(O)(C(=O)O)C(C(=O)O)(O1)C(OC(=O)C=CC(C)CC(C)CC)C2O)C(OC(C)=O)C(C)Cc1ccccc1` (centres unmarked) [Compound A], for which the MIC was 6.2 µg/mL (≈ 8.98 µM) in the experiment on A. fumigatus MF4839; 6.2 µg/mL (≈ 8.98 µM) with A. flavus MF383; 25 µg/mL (≈ 36.2 µM) in the experiment with A. niger MF442; greater than 100 µg/mL with Fus. oxysporum MF4014; 6.2 µg/mL (≈ 8.98 µM) in the experiment with Pen. italicum MF2819; 1.6 µg/mL (≈ 2.32 µM) in the experiment on Coch. miyabeanus MF4626. The MIC turned out to be 4 µg/mL (≈ 5.79 µM) in the experiment on T. Mentagrophytes MF4864; 8 µg/mL (≈ 11.6 µM) with C. albicans MY1055; 4 µg/mL (≈ 5.79 µM) in the experiment on C. tropicalis MY1012; 8 µg/mL (≈ 11.6 µM) in the experiment with C. parapsilosis MY1010; 1 µg/mL (≈ 1.45 µM) in the experiment with Crypt. neoformans MY1051. Moreover, the MFC in the experiment with C. albicans MY1055 was 4 µg/mL (≈ 5.79 µM); in the experiment with C. tropicalis MY1012 it was 2 µg/mL (≈ 2.9 µM); with C. parapsilosis MY1010, 2 µg/mL (≈ 2.9 µM); in the experiment with Crypt. neoformans MY1051, 0.5 µg/mL (≈ 0.724 µM).
